# From patent US20250241878A1, “TYROSINE AND RESVERATROL DERIVATIVES AS NOVEL MODULATORS OF CELLULAR SERINE ADP-RIBOSYLATION” (UNIVERSITY OF SOUTH CAROLINA, priority 2022, published 2025)
# Key:
# global protein synthesis = assay: Puromycin incorporation assay; type: cell-based, rat; details: compound alone
# Description: (§1) Cultured neurons (DIV 9-10) were washed once with cold 1×PBS and lysed in cell lysis buffer (20 mM Tris-HCl (pH 7.5), 150 mM NaCl, 1 mM Na2EDTA, 1 mM EGTA, 1% Triton™, 2.5 mM sodium pyrophosphate, 1 mM beta-glycerophosphate, 1 mM Na3VO4, 1 μg/ml leupeptin supplemented with protease inhibitor). The lysates were centrifuged at 10,000 RPM for 15 mins at 4° C. to separate the chromatin-bound and soluble fractions. Lysates were quantified using Bio-Rad™ Protein Assay and equal amounts of protein were loaded onto a 4 to 12% gradient gel (Invitrogen™ NuPAGE™). Protein was transferred from the gel to 0.2 μm NC membranes at 25 V for 10 mins using transfer stacks (iBlot™ 2-Invitrogen™) and blocked with 5% non-fat milk in TBST (10 mM Tris-HCl pH 8.0, 150 mM NaCl, 0.01% Tween-20) for 1 hr before application of primary antibodies. Primary and secondary antibodies were incubated overnight at 4° C. and for 1 hr at room temperature, respectively. Immobilon® ECL Ultra Western HRP Substrate (WBULS0500, Millipore™) and a luminescent image analyzer (ChemiDoc™ Imaging System, Bio-Rad™) were used to detect proteins. Quantification of western blots was done using ImageJ (Version 1.53c).
# HPF1 = HPF1 levels immunoblot in cortical neurons; type: cell-based, rat; details: compound alone
# Description: FIG. 5A presents immunoblots showing the protein levels of HPF1 in rat cortical neurons (DIV9-10) after treatment with Tyr ([…]) for up to 8 hr.
# as §1
# cleaved caspase-3 = assay: Cleaved caspase-3 immunoblot; type: cell-based, rat; details: compound alone; trans-RSV at high concentration
# Description: FIG. 17E presents immunoblots showing the levels of cleaved caspase-3 in rat cortical neurons (DIV 9/10) after the treatment with D-Tyr (2 mM) for 16 hr.
# PARP1 = assay: Auto-PARylation of PARP1 immunoblot; type: cell-based, rat
# [1] = system: interaction of PARP1 with histone H3; assay: PARP1 immunoprecipitation probed for H3; type: cell-based, rat
# Description: FIG. 18A presents representative immunoblots and quantification of the interaction of H3 with PARP1. […] The interaction of PARP1 with H3 was determined using anti-H3 antibody.
# AcK56-H3 = details: humans, 500 mg/day dosing; cited from earlier work
# rat cortical neurons = assay: MTT cell viability assay; parameters: effect on neurotoxicity induced by etoposide (ETO) / effect on neurotoxicity induced by oxidative stress (H2O2) / effect on neurotoxicity induced by mitochondrial inhibition (MPP+) / neurotoxicity (viability): dose or concentration left out as unconfirmed; details: for effect on D-Tyr mediated neurotoxicity: combination with D-Tyr
# Description: Rat cortical neurons (DIV9-11) were exposed to different treatments (NMDA, ETO, H2O2, MPP+) after seeding 20,000 cells/well in 96-well plates. Cell viability was then assessed at 48 hr after the initial exposure to NMDA. 3-[4,5-dimethylthiazole-2-yl]-2,5-diphenyltetrazolium bromide (MTT) assays were used to assess change in cell viability. […] Cultured rat cortical neurons were incubated with MTT (0.5 mg/mL). In the MTT assay, after 2 hr incubation, the insoluble purple product formazan resulting from the reduction of MTT by NAD (P) H-dependent oxidoreductases present in cells with viable mitochondria was solubilized in dimethyl sulfoxide at room temperature, under agitation, and protected from light. The percentage of MTT reduced as measured by the difference between the absorbances at 570 nm read in a spectrophotometer (SpectraMax® 190R Molecular Devices, UK).
# OGG1 = OGG1 levels Western blot in cortical neurons; type: cell-based, rat
# Description: FIG. 4C presents primary cortical neurons treated with Tyr ([…]) for 8 hr, and OGG1 was detected by Western Blot analysis using anti-OGG1 antibody.
# as §1
# cortical neurons = assay: Neurite degeneration (MAP2 staining); type: cell-based, rat; details: agent alone
# Description: The neurite degeneration index was calculated. Samples were imaged using ImageXpress® Micro 4 at a magnification of 10× to capture the entire field of interest. The samples analyzed for neurite degeneration were stained using the standard immunofluorescence procedure with MAP2 (Alexa Fluor® 647) for neurites and DAPI staining for the nucleus. Neurite degeneration was quantified using 5-6 regions of interest of equal sizes from each treatment condition. The analysis of neurite degeneration was done using ImageJ. The fluorescent images for MAP2 staining were binarized, so that pixel intensity of regions corresponding to neurite staining was converted to black, and all other regions were converted to white. Healthy intact neurites show a continuous tract, whereas degenerated axons have a particulate structure due to fragmentation or beading. To detect degenerated neurites, the particle analyzer module of ImageJ was used. The percentage of the area of the small fragments or particles (size=3-10 μm^2) to the intact neurites (size >25 μm^2) with information derived from the binary images was calculated. A degeneration index (DI) was calculated as the fragmented neurite area ratio over the intact neurite area.
# monosomes = assay: Monosome formation in cortical neurons; type: cell-based, rat; details: compound alone
# [2] = system: association of raptor with Rab7a; assay: Raptor / Rab7a immunoprecipitation; type: cell-based, rat
# From the text: FIG. 19C presents cis-RSV-mediated recruitment of raptor to Rab7a-coated late endosomes.
# [3] = higher concentrations of trans-RSV (≥25 mM)
compound,measurement,setting,value
"Oc1ccc(/C=C/c2cc(O)cc(O)c2)cc1 [trans-RSV, trans-resveratrol]",global protein synthesis (puromycin incorporation),global protein synthesis,inhibited global protein synthesis
same,HPF1 levels,HPF1,decreased HPF1 levels
same,levels of cleaved caspase-3,cleaved caspase-3,increased the levels of cleaved caspase-3
same,auto-PARylation of PARP1,PARP1; [3],inhibit the auto-PARylation of PARP1
same,auto-PARylation of PARP1,"PARP1; low concentration of trans-RSV, converted to cis-RSV in solution",stimulates the auto-PARylation of PARP1
same,interaction of PARP1 with histone H3,[1]; higher concentrations (≥25 mM) of trans-RSV,increased it
same,interaction of PARP1 with histone H3,[1]; low concentrations of trans-RSV,prevented the interaction of PARP1 with histone H3
same,acetylation of H3 at lysine 56 (AcK56-H3),AcK56-H3,inhibited the acetylation of H3 at lysine 56
same,effect on neurotoxicity induced by etoposide (ETO),rat cortical neurons,did not protect against these neurotoxic agents
same,effect on neurotoxicity induced by mitochondrial inhibition (MPP+),rat cortical neurons,did not protect against these neurotoxic agents
same,effect on neurotoxicity induced by oxidative stress (H2O2),rat cortical neurons,did not protect against these neurotoxic agents
same,neurotoxicity (viability),rat cortical neurons,by itself was neurotoxic
same,effect on D-Tyr mediated neurotoxicity,rat cortical neurons,protected against D-Tyr mediated neurotoxicity but not trans-RSV
same,effect on NMDA mediated neurotoxicity,rat cortical neurons; [3],exacerbated the toxicity
same,effect on NMDA mediated neurotoxicity,rat cortical neurons; low concentrations of trans-RSV (≤10 mM),evoked protective effects
"N[C@@H](Cc1ccc(O)cc1)C(=O)O [tyrosine, L-tyrosine]",OGG1 levels,OGG1; compound alone,decreased 8-oxoguanine-DNA glycosylase (OGG1) levels
same,HPF1 levels,HPF1,decreased HPF1 levels
same,neurite degeneration,cortical neurons,did not induce neurite degeneration
"Oc1ccc(/C=C\c2cc(O)cc(O)c2)cc1 [cis-RSV, cis-resveratrol]",effect on tyrosine-mediated decrease of OGG1 levels,OGG1; combination with tyrosine,rescued
same,levels of cleaved caspase-3,cleaved caspase-3,decreased the levels of caspase-3 cleavage
same,interaction of PARP1 with histone H3,[1]; cis-RSV,prevented the interaction of PARP1 with histone H3
same,monosome formation,monosomes,stimulate the formation of monosomes
same,association of raptor with Rab7a,[2],increases the association of raptor with Rab7a
same,effect on neurotoxicity induced by etoposide (ETO),rat cortical neurons,suppressed the neurotoxicity
same,effect on neurotoxicity induced by mitochondrial inhibition (MPP+),rat cortical neurons,suppressed the neurotoxicity
same,effect on neurotoxicity induced by oxidative stress (H2O2),rat cortical neurons,suppressed the neurotoxicity
same,effect on NMDA-mediated toxicity,rat cortical neurons; cis-RSV,protected against NMDA-mediated toxicity in a concentration-dependent manner
same,effect on D-Tyr mediated neurotoxicity,rat cortical neurons,protected against D-Tyr mediated neurotoxicity
same,effect on trans-RSV-mediated neurotoxicity,rat cortical neurons; combination with trans-RSV,protected against the neurotoxicity induced by trans-RSV in a dose-dependent manner
